The target in one assay is CDK2/Cyclin E2 (Homo sapiens, UniProt P24941). Description: CDK2/CyclinE2 enzymatic activity assay (TR-FRET). It counts as biochemical. Particulars: ATP 1 mM final, read-out: CDK2_E1 IC50. Put shortly:
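Insect-cell-expressed CDK2/Cyclin E2 (1 nM), ULight-4E-BP1 (50 nM) and ATP (1 mM) in HEPES pH 7.4 buffer were preincubated 20 min at RT with compound (9-dose, 3-fold), started with 10 mM MgCl2 and run 45 min at 37 °C. EDTA/Eu-anti-P-4E-BP1 stop, 60 min TR-FRET detection; IC50 from 4-parameter Hill fit.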
On the technique in general: Time-resolved FRET reads energy transfer from a long-lived donor to a nearby acceptor.

For a further assay, the target named is T1, CDK4/Cyclin D1 (Homo sapiens, UniProt P11802).
T1 construct: purchased ProQinase; host or cells: insect cell
Description: CDK4/CyclinD1 enzymatic activity assay (TR-FRET). It counts as biochemical. Particulars: ATP 2 mM final, read-out: CDK4_D1 IC50. The gist of the method:
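Insect-cell-expressed CDK4/Cyclin D1 (1 nM) phosphorylated ULight-4E-BP1 peptide (100 nM) at 2 mM ATP in HEPES pH 7.4 buffer after 20 min compound preincubation. Reaction started with 10 mM MgCl2, ran 45 min at 37 °C, then EDTA quench and Eu-anti-phospho-4E-BP1 TR-FRET detection. IC50 from 9-point 3-fold dilutions, 4-parameter fit.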

The subject of the next assay is OVCAR3 p-RB. Description: pRB ICW assay in OVCAR3 cells. It counts as cell-based. Particulars: Homo sapiens, OVCAR-3, incubated with compound for 2 hours. Put shortly:
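OVCAR3 cells were treated 2 h at 37 °C with a 9-point half-log compound series, in duplicate, with 10 μM reference compound as maximum inhibition. Cells were then fixed, permeabilized and stained with anti-phospho-RB plus DRAQ5. In-cell western intensities were read at 700/800 nm on Odyssey CLx.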

Data on twelve compounds can be found in patent publication US20240018136A1, “CDK Inhibitors And Their Use As Pharmaceuticals” (Prelude Therapeutics, Incorporated, priority 2022, published 2024).

Molecules are shown by their SMILES. A value given as a limit tells only on which side of the number the result lay.

T1 sequence (P11802 whole entry): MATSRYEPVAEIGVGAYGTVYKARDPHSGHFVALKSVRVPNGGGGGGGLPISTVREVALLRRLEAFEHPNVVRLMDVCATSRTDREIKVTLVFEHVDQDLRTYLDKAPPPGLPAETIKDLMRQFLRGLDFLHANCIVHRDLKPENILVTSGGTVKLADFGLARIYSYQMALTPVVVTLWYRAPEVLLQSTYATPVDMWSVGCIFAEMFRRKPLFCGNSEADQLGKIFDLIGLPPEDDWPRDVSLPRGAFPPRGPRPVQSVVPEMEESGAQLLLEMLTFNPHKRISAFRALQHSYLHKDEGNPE
T1 sequence (P24385 whole entry partner): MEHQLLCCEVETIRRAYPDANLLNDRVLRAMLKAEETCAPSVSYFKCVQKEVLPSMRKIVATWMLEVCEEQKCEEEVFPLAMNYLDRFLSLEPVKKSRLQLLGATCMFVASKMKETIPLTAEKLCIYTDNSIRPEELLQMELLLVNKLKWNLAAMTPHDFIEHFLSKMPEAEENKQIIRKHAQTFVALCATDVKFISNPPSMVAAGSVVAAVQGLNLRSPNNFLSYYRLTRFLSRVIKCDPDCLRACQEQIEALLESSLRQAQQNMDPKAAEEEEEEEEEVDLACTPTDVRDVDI

Regarding `Cn1cc(S(=O)(=O)N2CCC(Nc3ncc(C(F)(F)F)c(-c4cnc(C(O)C(F)F)s4)n3)CC2)cn1` (stereo not drawn) [Example 92, 2,2-difluoro-1-(5-(2-((1-((1-methyl-1H-pyrazol-4-yl)sulfonyl)piperidin-4-yl)amino)-5-(trifluoromethyl)pyrimidin-4-yl)thiazol-2-yl)ethan-1-ol], the IC50 at CDK2/Cyclin E2, on CDK4/Cyclin D1 and in the assay with OVCAR3 p-RB was at most 100 nM each time.

Consider `Cc1ncc(-c2nc(N[C@@H]3CCN(S(=O)(=O)c4cnn(C)c4)C[C@H]3F)ncc2C(F)(F)F)s1` [Example 93, N-((3R,4R)-3-fluoro-1-((1-methyl-1H-pyrazol-4-yl)sulfonyl)piperidin-4-yl)-4-(2-methylthiazol-5-yl)-5-(trifluoromethyl)pyrimidin-2-amine], for which the IC50 at CDK2/Cyclin E2 was at most 100 nM; at CDK4/Cyclin D1 it was at most 100 nM; in the assay with OVCAR3 p-RB, 100 to 1000 nM.

For `Cc1ncc(-c2nc(N[C@H]3CCN(S(=O)(=O)c4cnn(C)c4)C[C@H]3F)ncc2C(F)(F)F)s1` [Example 94, N-((3R,4S)-3-fluoro-1-((1-methyl-1H-pyrazol-4-yl)sulfonyl)piperidin-4-yl)-4-(2-methylthiazol-5-yl)-5-(trifluoromethyl)pyrimidin-2-amine], the IC50 at CDK2/Cyclin E2, on CDK4/Cyclin D1 and with OVCAR3 p-RB was at most 100 nM each time.

As to `Cn1cc(S(=O)(=O)N2CCC(Nc3ncc(C(F)(F)F)c(-c4cnc(C5(O)CCCC5)s4)n3)CC2)cn1` [Example 95, 1-(5-(2-((1-((1-methyl-1H-pyrazol-4-yl)sulfonyl)piperidin-4-yl)amino)-5-(trifluoromethyl)pyrimidin-4-yl)thiazol-2-yl)cyclopentan-1-ol], the IC50 on CDK2/Cyclin E2, on CDK4/Cyclin D1 and in the assay on OVCAR3 p-RB was at most 100 nM throughout.

Turning to `C[C@@H]1CN(S(=O)(=O)c2cn(C)cn2)CC[C@@H]1Nc1ncc(C(F)(F)F)c(-c2cnc(C(C)(C)O)s2)n1` [Example 96, 2-(5-(2-(((3R,4S)-3-methyl-1-((1-methyl-1H-imidazol-4-yl)sulfonyl)piperidin-4-yl)amino)-5-(trifluoromethyl)pyrimidin-4-yl)thiazol-2-yl)propan-2-ol], the IC50 on CDK2/Cyclin E2 is at most 100 nM; on CDK4/Cyclin D1, 100 to 1000 nM; in the assay with OVCAR3 p-RB, at most 100 nM.

For the compound `CC(O)c1ncc(-c2nc(N[C@@H]3CCN(S(=O)(=O)c4cnn(C)c4)C[C@@H]3F)ncc2C(F)(F)F)s1` (stereo partly drawn) [Example 97, 1-(5-(2-(((3S,4R)-3-fluoro-1-((1-methyl-1H-pyrazol-4-yl)sulfonyl)piperidin-4-yl)amino)-5-(trifluoromethyl)pyrimidin-4-yl)thiazol-2-yl)ethan-1-ol], the IC50 is 100 to 1000 nM on CDK2/Cyclin E2, 100 to 1000 nM on CDK4/Cyclin D1 and above 1000 nM in the assay with OVCAR3 p-RB.

Turning to `CC(O)c1ncc(-c2nc(N[C@H]3CCN(S(=O)(=O)c4cnn(C)c4)C[C@H]3F)ncc2C(F)(F)F)s1` (stereo partly drawn) [Example 98, 1-(5-(2-(((3R,4S)-3-fluoro-1-((1-methyl-1H-pyrazol-4-yl)sulfonyl)piperidin-4-yl)amino)-5-(trifluoromethyl)pyrimidin-4-yl)thiazol-2-yl)ethan-1-ol], the IC50 on CDK2/Cyclin E2, at CDK4/Cyclin D1 and in the assay on OVCAR3 p-RB was at most 100 nM each time.

In the case of `CC(O)c1ncc(-c2nc(N[C@@H]3CCN(S(=O)(=O)c4cnn(C)c4)C[C@H]3F)ncc2C(F)(F)F)s1` (stereo partly drawn) [Example 99, 1-(5-(2-(((3R,4R)-3-fluoro-1-((1-methyl-1H-pyrazol-4-yl)sulfonyl)piperidin-4-yl)amino)-5-(trifluoromethyl)pyrimidin-4-yl)thiazol-2-yl)ethan-1-ol], the figures for the IC50 at CDK2/Cyclin E2, at CDK4/Cyclin D1 and in the assay on OVCAR3 p-RB were at most 100 nM, at most 100 nM and 100 to 1000 nM, respectively.

Take `CC(O)c1ncc(-c2nc(N[C@H]3CCN(S(=O)(=O)c4cnn(C)c4)C[C@@H]3F)ncc2C(F)(F)F)s1` (stereo partly drawn) [Example 100, 1-(5-(2-(((3S,4S)-3-fluoro-1-((1-methyl-1H-pyrazol-4-yl)sulfonyl)piperidin-4-yl)amino)-5-(trifluoromethyl)pyrimidin-4-yl)thiazol-2-yl)ethan-1-ol]: the IC50 at CDK2/Cyclin E2 is at most 100 nM; on CDK4/Cyclin D1, 100 to 1000 nM; in the assay with OVCAR3 p-RB it was above 1000 nM.

For `CC(O)c1ncc(-c2nc(N[C@H]3CCN(S(=O)(=O)c4cnn(C)c4)C[C@H]3C)ncc2C(F)(F)F)s1` (stereo partly drawn) [Example 102, 1-(5-(2-(((3R,4S)-3-methyl-1-((1-methyl-1H-pyrazol-4-yl)sulfonyl)piperidin-4-yl)amino)-5-(trifluoromethyl)pyrimidin-4-yl)thiazol-2-yl)ethan-1-ol], the IC50 was at most 100 nM on CDK2/Cyclin E2, 100 to 1000 nM on CDK4/Cyclin D1 and 100 to 1000 nM with OVCAR3 p-RB.

Consider `CC(O)c1ncc(-c2nc(N[C@H]3CCN(S(=O)(=O)c4cnc(N)s4)C[C@H]3C)ncc2C(F)(F)F)s1` (stereo partly drawn) [Example 103, 1-(5-(2-(((3R,4S)-1-((2-aminothiazol-5-yl)sulfonyl)-3-methylpiperidin-4-yl)amino)-5-(trifluoromethyl)pyrimidin-4-yl)thiazol-2-yl)ethan-1-ol], for which the IC50 at CDK2/Cyclin E2 is at most 100 nM; at CDK4/Cyclin D1, 100 to 1000 nM; in the assay with OVCAR3 p-RB, above 1000 nM.

As to `CC(O)c1ncc(-c2nc(N[C@H]3CCN(S(=O)(=O)c4c[nH]cn4)C[C@H]3C)ncc2C(F)(F)F)s1` (stereo partly drawn) [Example 104, 1-(5-(2-(((3R,4S)-1-((1H-imidazol-4-yl)sulfonyl)-3-methylpiperidin-4-yl)amino)-5-(trifluoromethyl)pyrimidin-4-yl)thiazol-2-yl)ethan-1-ol], the IC50 on CDK2/Cyclin E2 was at most 100 nM; on CDK4/Cyclin D1, 100 to 1000 nM; in the assay with OVCAR3 p-RB, 100 to 1000 nM.

As usually defined, the IC50 is the concentration at which inhibition is half-maximal.
